# Results as given in patent US6943166B1, “Compositions comprising phosphodiesterase inhabitors for the treatment of sexual disfunction” (Lilly ICOS LLC., priority 1999, dated 2005).
# Columns and labels:
# [1] = test system: PDEl; conditions: package insert; cited from earlier work
# [2] = test system: patients taking organic nitrates; conditions: combination with organic nitrates; cited from earlier work
# [3] = test system: healthy male volunteers; test: Example 5: drug interaction study of Compound (I) with short-acting nitrates (hemodynamic effects); assay type: in vivo, human
# Protocol: On the sixth or seventh day, the subjects received sublingual nitroglycerin (0.4 mg) while supine on a tilt table. […] The subjects were tilted to 70° head-up every 5 minutes for a total of 30 minutes with measurement of blood pressure and heart rate. There were no discontinuations among the twenty-two healthy male subjects (ages 19 to 60 years old) that entered this study.
# [4] = test system: patients in need thereof; test: Example 6: two randomized, double-blinded placebo controlled studies, daily and on demand dosing; assay type: in vivo, human
# Protocol: In two randomized, double-blinded placebo controlled studies, Compound (I) was administered to patients in need thereof at a range of doses, in both daily dosing and for on demand therapy, for sexual encounters and intercourse in the home setting.
# Enhanced erectile function was determined by the International Index of Erectile Function (IIEF) (Rosen et al., Urology, 49, pp. 822-830 (1997)), diaries of sexual attempts, and a global satisfaction question.
# [5] = test system: patients with male erectile dysfunction; test: Example 7: placebo-controlled on demand study in male erectile dysfunction (IIEF, SEP, safety); assay type: in vivo, human; conditions: for patients who rated ability to maintain an erection (IIEF Question 4) as almost always or always: at endpoint
# Protocol: A third clinical study was a randomized, double-blind, placebo-controlled study of Compound (I) administered “on demand” to patients with male erectile dysfunction. Compound (I) was administered over a period of eight weeks in the treatment of male erectile dysfunction (ED). Erectile dysfunction (ED) is defined as the persistent inability to attain and/or maintain an erection adequate to permit satisfactory sexual performance.
# The study population consisted of 212 men, at least 18 years of age, with mild to severe erectile dysfunction. […] Treatment with all nitrates, azole antifungals (e.g., ketoconazole or itraconazole), warfarin, erythromycin, or antiandrogens was not allowed at any time during the study. No other approved or experimental medications, treatments, or devices used to treat ED were allowed. Forty-one subjects were administered a placebo.
# The two primary efficacy variables were the ability of a subject to penetrate their partner and their ability to maintain an erection during intercourse, as measured by the International Index of Erectile Function (IIEF). The IIEF Questionnaire contains fifteen questions, and is a brief, reliable measure of erectile function. See R. C. Rosen et al., Urology, 49, pp. 822-830 (1997)
# Secondary efficacy variables were IIEF domain scores for erectile function, orgasmic function, sexual desire, intercourse satisfaction, and overall satisfaction; the patient's ability to achieve an erection, ability to insert their penis into their partner's vagina, completion of intercourse with ejaculation, satisfaction with the hardness of their erection, and overall satisfaction, all as measured by the Sexual Encounter Profile (SEP) diary; and a global assessment question asked at the end of the treatment period. […]
# The safety aspect of the study included all enrolled subjects, and was assessed by evaluating all reported adverse events, and changes in clinical laboratory values, vital signs, physical examination results, and electrocardiogram results.
# [6] = 10 mg daily for seven days, sublingual nitroglycerin 0.4 mg
flushing ([4]; doses from 5 to 20 mg),Structure (SMILES),more potent inhibitor of PDE5 than PDE1 [1],blood pressure effect in patients taking organic nitrates [2],changes in laboratory safety assessments or 12-lead ECGs ([3]; 10 mg daily for seven days),"effect on mean maximal nitroglycerin-induced decrease in systolic blood pressure [3, 6]","effect on mean systolic blood pressure [3, 6]","impact on systolic blood pressure ([3]; administered in conjunction with organic nitrates, human clinical studies)",efficacy for sexual encounters and intercourse ([4]; 10 mg dose),side effects ([4]; 10 mg dose),efficacy for sexual encounters and intercourse ([4]; doses from 5 to 20 mg),percentage of successful intercourse attempts including ability to attain and maintain an erection ([4]; on demand and daily dosing regimens),patients who rated ability to maintain an erection (IIEF Question 4) as almost always or always ([5]; 10 mg on demand) [%],patients who rated ability to maintain an erection (IIEF Question 4) as almost always or always ([5]; 25 mg on demand) [%],incidence of treatment-emergent adverse events ([5]; 2 to 25 mg on demand)
–,CCCc1nn(C)c2c(=O)[nH]c(-c3cc(S(=O)(=O)N4CCN(C)CC4)ccc3OCC)nc12 [sildenafil],greater than 80 fold,clinically significant drop in blood pressure,–,–,–,–,–,–,–,–,–,–,–
less than 1%,"CN1CC(=O)N2[C@H](c3ccc4c(c3)OCO4)c3[nH]c4ccccc4c3C[C@@H]2C1=O [Compound (I), (6R,12aR)-2,3,6,7,12,12a-hexahydro-2-methyl-6-(3,4-methylenedioxyphenyl)-pyrazino[2′,1′:6,1]pyrido[3,4-b]indole-1,4-dione]",–,–,no Compound (I) changes,"minimal, if any, effect","minimal, if any, effect",minimal impact,fully efficacious,minimal side effects,efficacious,significantly improved,39.0,69.0,appeared related to dose
